Data: EP1561465A2, “Methods of use of fluoroquinolone compounds against bacteria” (LG Life Sciences, Ltd., priority 1999, dated 2001)
Values after ≈ are worked out from the molar mass of the structure shown. Like-named read-outs stand apart in the source and are kept apart here.

What was measured:
Format in all cases: cell-based
Klebsiella pneumoniae [1] = assay: MIC by NCCLS reference broth microdilution, 450 respiratory tract pathogens; conditions: for MIC50 / MIC90: Klebsiella pneumoniae
Enterobacter aerogenes = assay: MIC by NCCLS broth microdilution, 1100 Japanese clinical isolates 1997-1998; conditions: Enterobacter aerogenes (n=35)
Haemophilus influenzae = assay: MIC by NCCLS reference broth microdilution, 450 respiratory tract pathogens; conditions: Haemophilus influenzae; for MIC90: read-out: MIC90
Shigella spp. = assay: MIC by NCCLS broth microdilution, 1100 Japanese clinical isolates 1997-1998; conditions: Shigella spp. (n=34)
Klebsiella oxytoca = assay: as above; conditions: Klebsiella oxytoca (n=40)
Klebsiella pneumoniae [2] = assay: as above; conditions: Klebsiella pneumoniae (n=35)
P. aeruginosa = assay: MIC by two-fold serial agar dilution, quinolone-resistant strains; conditions: Pseudomonas aeruginosa
Salmonella spp. = assay: MIC by NCCLS broth microdilution, 1100 Japanese clinical isolates 1997-1998; conditions: Salmonella spp. (n=29)
[3] = test system: Gram positive anaerobic and facultative anaerobic pathogens; assay: microbe, parasite or virus in culture
E. coli = assay: microbe, parasite or virus in culture; conditions: Escherichia coli
Serratia marcescens = assay: MIC by NCCLS broth microdilution, 1100 Japanese clinical isolates 1997-1998; conditions: Serratia marcescens (n=30)
[4] = extended spectrum β-lactamase negative (n = 30)
[5] = extended spectrum β-lactamase positive (n = 20)
[6] = Haemophilus influenzae (n = 100)

SMILES: C[C@@H]1CN(c2c(F)c(N)c3c(=O)c(C(=O)O)cn(C4CC4)c3c2F)C[C@H](C)N1 [Sparfloxacin, sparfloxacin]
- MIC Range (Klebsiella pneumoniae [1]; Klebsiella pneumoniae (n = 50)): ≤0.0075 to 1 µg/mL
- MIC50 (Klebsiella pneumoniae [1]; Klebsiella pneumoniae (n = 50)): 0.06 µg/mL (≈ 0.153 µM)
- MIC90 (Klebsiella pneumoniae [1]; Klebsiella pneumoniae (n = 50)): 0.5 µg/mL (≈ 1.27 µM)
- MIC50 (Klebsiella pneumoniae [1]; [4]): 0.03 µg/mL (≈ 0.0765 µM)
- MIC90 (Klebsiella pneumoniae [1]; [4]): 0.12 µg/mL (≈ 0.306 µM)
- MIC50 (Klebsiella pneumoniae [1]; [5]): 0.5 µg/mL (≈ 1.27 µM)
- MIC90 (Klebsiella pneumoniae [1]; [5]): 0.5 µg/mL (≈ 1.27 µM)
- MIC Range (Klebsiella pneumoniae [1]; [4]): ≤0.0075 to 0.25 µg/mL
- MIC Range (Klebsiella pneumoniae [1]; [5]): 0.03 to 0.5 µg/mL
- MIC Range (Enterobacter aerogenes): 0.016 to 0.25 µg/mL
- MIC50 (Enterobacter aerogenes; Klebsiella aerogenes): 0.032 µg/mL (≈ 0.0815 µM)
- MIC90 (Enterobacter aerogenes; Klebsiella aerogenes): 0.063 µg/mL (≈ 0.161 µM)
- MIC (Haemophilus influenzae; [6]): 0.0075 to 0.25 µg/mL (≈ 0.0191 to 0.637 µM)
- MIC50 (Haemophilus influenzae; [6]): 0.01 µg/mL (≈ 0.0255 µM)
- MIC90 (Haemophilus influenzae; [6]): 0.03 µg/mL (≈ 0.0765 µM)
- MIC (Haemophilus influenzae; β-lactamase negative (n = 80)): 0.0075 to 0.25 µg/mL (≈ 0.0191 to 0.637 µM)
- MIC50 (Haemophilus influenzae; β-lactamase negative (n = 80)): 0.015 µg/mL (≈ 0.0382 µM)
- MIC90 (Haemophilus influenzae; β-lactamase negative (n = 80)): 0.25 µg/mL (≈ 0.637 µM)
- MIC (Haemophilus influenzae; β-lactamase positive (n = 20)): 0.0075 to 0.12 µg/mL (≈ 0.0191 to 0.306 µM)
- MIC50 (Haemophilus influenzae; β-lactamase positive (n = 20)): 0.015 µg/mL (≈ 0.0382 µM)
- MIC90 (Haemophilus influenzae; β-lactamase positive (n = 20)): 0.03 µg/mL (≈ 0.0765 µM)
- MIC50 (Shigella spp.): ≤ 0.008 µg/mL
- MIC90 (Shigella spp.): 0.032 µg/mL (≈ 0.0815 µM)
- MIC Range (Shigella spp.): ≤0.008 to 0.032 µg/mL
- MIC50 (Klebsiella oxytoca): 0.063 µg/mL (≈ 0.161 µM)
- MIC90 (Klebsiella oxytoca): 8 µg/mL (≈ 20.4 µM)
- MIC Range (Klebsiella oxytoca): 0.016 to 32 µg/mL
- MIC50 (Klebsiella pneumoniae [2]): 0.032 µg/mL (≈ 0.0815 µM)
- MIC Range (Klebsiella pneumoniae [2]): 0.016 to 2 µg/mL
- MIC90 (Klebsiella pneumoniae [2]; read-out: MIC90): 0.063 µg/mL (≈ 0.161 µM)
- MIC (P. aeruginosa): 2 µg/mL (≈ 5.1 µM)
- MIC50 (Salmonella spp.): 0.032 µg/mL (≈ 0.0815 µM)
- MIC90 (Salmonella spp.): 0.063 µg/mL (≈ 0.161 µM)
- MIC Range (Salmonella spp.): 0.016 to 0.063 µg/mL
- MIC ([3]; Bifidobacterium adolescentis, ATCC15703): 0.5 µg/mL (≈ 1.27 µM)
- MIC ([3]; Bifidobacterium bifidum, JCM1255): 2 µg/mL (≈ 5.1 µM)
- MIC ([3]; Bifidobacterium breve, ATCC15700): 2 µg/mL (≈ 5.1 µM)
- MIC ([3]; Bifidobacterium longum, ATCC15707): 2 µg/mL (≈ 5.1 µM)
- MIC ([3]; Bifidobacterium pseudolongum, ATCC25526): 2 µg/mL (≈ 5.1 µM)
- MIC ([3]; Clostridioides difficile): 8 µg/mL (≈ 20.4 µM)
- MIC ([3]; Clostridium perfringens, ATCC13124): 0.125 µg/mL (≈ 0.319 µM)
- MIC ([3]; Clostridium septicum, ATCC12464): 0.125 µg/mL (≈ 0.319 µM)
- MIC ([3]; Cutibacterium acnes, ATCC11828): 0.25 µg/mL (≈ 0.637 µM)
- MIC ([3]; Eggerthella lenta, ATCC25559): 0.5 µg/mL (≈ 1.27 µM)
- MIC ([3]; Finegoldia magna, ATCC29328): 0.125 µg/mL (≈ 0.319 µM)
- MIC ([3]; Gemella morbillorum, ATCC27824): 0.25 µg/mL (≈ 0.637 µM)
- MIC ([3]; Lacticaseibacillus casei, JCM1134): 0.125 µg/mL (≈ 0.319 µM)
- MIC ([3]; Lactiplantibacillus plantarum, JCM1149): 8 µg/mL (≈ 20.4 µM)
- MIC ([3]; Lactobacillus acidophilus, JCM1132): 32 µg/mL (≈ 81.5 µM)
- MIC ([3]; Levilactobacillus brevis, JCM1059): 2 µg/mL (≈ 5.1 µM)
- MIC ([3]; Ligilactobacillus salivarius, JCM1231): 0.5 µg/mL (≈ 1.27 µM)
- MIC ([3]; Limosilactobacillus reuteri, JCM1112): 2 µg/mL (≈ 5.1 µM)
- MIC ([3]; Limosilactobacillus reuteri, JCM1173): 2 µg/mL (≈ 5.1 µM)
- MIC ([3]; Paraclostridium sordellii, ATCC9714): 2 µg/mL (≈ 5.1 µM)
- MIC ([3]; Parvimonas micra): 0.5 µg/mL (≈ 1.27 µM)
- MIC ([3]; Peptoniphilus asaccharolyticus): 0.25 µg/mL (≈ 0.637 µM)
- MIC ([3]; Peptoniphilus indolicus): 0.06 µg/mL (≈ 0.153 µM)
- MIC ([3]; Peptostreptococcus anaerobius, ATCC27337): 0.5 µg/mL (≈ 1.27 µM)
- MIC ([3]; Schaalia odontolytica): 4 µg/mL (≈ 10.2 µM)
- MIC ([3]; Staphylococcus saccharolyticus, ATCC14953): 0.25 µg/mL (≈ 0.637 µM)
- MIC ([3]; Streptococcus constellatus, ATCC27823): 0.5 µg/mL (≈ 1.27 µM)
- MIC ([3]; Streptococcus intermedius, ATCC27335): 0.5 µg/mL (≈ 1.27 µM)
- MIC ([3]; Thomasclavelia ramosa, ATCC25582): 4 µg/mL (≈ 10.2 µM)
- MIC50 (E. coli; E. coli (13 strains), quinolone-resistant, read-out: MIC50): 0.125 µg/mL (≈ 0.319 µM)
- MIC90 (E. coli; E. coli (13 strains), quinolone-resistant, read-out: MIC90): 0.5 µg/mL (≈ 1.27 µM)
- MIC (E. coli; E. coli KU1029, mutant type SP (spontaneous mutant in the DNA gyrase)): 0.031 µg/mL (≈ 0.079 µM)
- MIC (E. coli; E. coli KU1030, mutant type SP): 0.063 µg/mL (≈ 0.161 µM)
- MIC (E. coli; E. coli KU1031, mutant type SP): 0.031 µg/mL (≈ 0.079 µM)
- MIC (E. coli; E. coli KU1032, mutant type SP): 0.125 µg/mL (≈ 0.319 µM)
- MIC (E. coli; E. coli KU1033, mutant type SP): 0.031 µg/mL (≈ 0.079 µM)
- MIC (E. coli; E. coli KU1034, mutant type GA (DNA gyrase A)): 0.5 µg/mL (≈ 1.27 µM)
- MIC (E. coli; E. coli KU1035, mutant type GA (DNA gyrase A)): 0.5 µg/mL (≈ 1.27 µM)
- MIC (E. coli; E. coli KU1036, mutant type GB (DNA gyrase B)): 0.063 µg/mL (≈ 0.161 µM)
- MIC (E. coli; E. coli KU1038, mutant type SP): 0.031 µg/mL (≈ 0.079 µM)
- MIC (E. coli; E. coli KU1039, mutant type SP): 0.25 µg/mL (≈ 0.637 µM)
- MIC (E. coli; E. coli KU1040, mutant type SP): ≤ 0.008 µg/mL
- MIC (E. coli; E. coli KU1041, mutant type SP): 0.25 µg/mL (≈ 0.637 µM)
- MIC (E. coli; E. coli KU1042, mutant type SP): 0.063 µg/mL (≈ 0.161 µM)
- MIC90 (Serratia marcescens): 2 µg/mL (≈ 5.1 µM)
- MIC Range (Serratia marcescens): 0.063 to 64 µg/mL
- MIC50 (Serratia marcescens; read-out: MIC50): 0.25 µg/mL (≈ 0.637 µM)
